Source: patent US11440907B1 (Merck Patent GmbH, priority 2018, dated 2022)

System: XBP1(u)-luciferase splicing reporter in HepG2 hepatoma cells
Experiment: HepG2 XBP1 reporter assay (XBP1(u)-Luc)
Assay type: cell-based
Settings: Homo sapiens, 6 h, six hours after addition of compound
Source text: HepG2 XBP1 Reporter Assay
HepG2 hepatoma cells were transduced with a retrovirus encoding the cDNA for unspliced (u) XBP1, which contains a non-processed intron, fused to the cDNA for firefly luciferase. Upon induction of ER stress, the non-processed intron of XBP1(u) is spliced out by active IRE1alpha endonuclease. The resulting spliced (s) XBP1 is now in frame with luciferase which causes the production of active luciferase protein, resulting in bioluminescence
HepG2 XBP1(u)-Luc cells were plated […] Cultured cells with a stably transfected reporter construct were plated at approximately 30,000 cells per well into 96 well multi-well plates for twenty four hours. The testing compounds were then added to the wells in 3-fold serial dilutions using a twenty seven micromolar top concentration. A series of control wells for each cell type received only compound solvent. Six hours after the addition of compound, reporter activity for luciferase was assayed, by addition of the SteadyGlo luminescence reagent (Promega). The reporter luminescence activity was measured using Pherastar plate reader (BMG Labtech). Readings was normalized to DMSO only treated cells, and normalized activities were then used in the IC50 calculations. The HepG2 XBP1 reporter assay data are summarized in Tables 3-5: A<0.6 μM; 0.6 μM≤B<2.0 μM; 2.0 μM≤C<5.0 μM; D≥5.0 μM.

IC50 [nM]	SMILES
600 to 2000	Cc1cc(N2CCCOC[C@@H]2c2cc3c(cc2Cl)OCC2(CC2)CO3)nc(N)n1 [D-16]
600 to 2000	COc1cc(C2COCCCN2c2cc(C)nc(N)n2)c(Cl)cc1OCC(=O)NC(C)(C)C [D-32]
600 to 2000	CCOc1cc(C2COCCCN2c2cc(C)nc(N)n2)c(Cl)cc1OCC(=O)OC [D-44]
600 to 2000	CCOc1cc(C2COCCCN2c2cc(C)nc(N)n2)c(Cl)cc1OCC(=O)NC(C)(C)C [D-47]
600 to 2000	C=CCOc1cc(Cl)c(C2COCCCN2c2cc(C)nc(N)n2)cc1OCC [D-48]
2000 to 5000	COC(=O)Cc1cc(C2COCCCN2c2cc(C)nc(N)n2)c(Cl)cc1C#N [D-53]
2000 to 5000	Cc1cc(N2CCCOC[C@@H]2c2ccc(NC(=O)C3(F)CCOC3)cc2Cl)nc(N)n1 (stereo partly drawn) [D-62]
2000 to 5000	Cc1cc(N2CCCOC[C@@H]2c2ccc(C3CCNCC3)cc2Cl)nc(N)n1 [D-66]
600 to 2000	Cc1cc(N2CCCOCC2c2ncc(CS(C)(=O)=O)cc2OC(F)F)nc(N)n1 [D-67]
600 to 2000	Cc1cc(N2CCCOC[C@@H]2c2ccc(C3CCN(C4COC4)CC3)cc2Cl)nc(N)n1 [D-69]
2000 to 5000	Cc1cc(N2CCCOCC2c2ccc(C3CCN(C4COC4)CC3)cc2Cl)nc(N)n1 [D-70]
600 to 2000	CCOc1cc(C2COCCCN2c2cc(C)nc(N)n2)c(Cl)cc1OCC(N)=O [D-72]
600 to 2000	Cc1cc(N2CCCOCC2c2cc(CN)c(Cl)cc2C)nc(N)n1 [D-73]
< 600	Cc1cc(N2CCCOCC2c2cc(O)c(OC(F)(F)F)cc2Cl)nc(N)n1 [D-74]
< 600	Cc1cc(N2CCCOC[C@@H]2c2cc(CN)c(C)cc2Cl)nc(N)n1 [D-75]
< 600	Cc1cc(N2CCCOC[C@H]2c2cnc(CS(C)(=O)=O)cc2Cl)nc(N)n1 [D-76]
600 to 2000	COC(=O)c1cc(C2COCCCN2c2cc(C)nc(N)n2)c(Cl)cc1C#N [D-77]
600 to 2000	Cc1cc(N2CCCOCC2c2cc(O)c(S(C)(=O)=O)cc2Cl)nc(N)n1 [D-79]
600 to 2000	Cc1cc(N2CCCOC[C@@H]2c2ccc(N3CCN(C(=O)OC(C)(C)C)CC3)cc2Cl)nc(N)n1 [D-82]
< 600	Cc1cc(N2CCCOC[C@@H]2c2ccc(NCC3CCOC3)cc2Cl)nc(N)n1 (stereo partly drawn) [D-83]
600 to 2000	Cc1cc(N2CCCOC[C@@H]2c2ccc(N3C[C@@H](C)O[C@@H](C)C3)cc2Cl)nc(N)n1 [D-84]
600 to 2000	Cc1cc(N2CCCOCC2c2cnc(CS(C)(=O)=O)cc2OC(F)F)nc(N)n1 [D-85]
≥ 5000	CCc1cc(N2CCCOCC2c2cc(O)c(S(C)(=O)=O)cc2Cl)nc(N)n1 [D-87]
2000 to 5000	Cc1cc(N2CCCOC[C@H]2c2ccc([C@@H]3CCCN3)cc2Cl)nc(N)n1 [D-88]
2000 to 5000	Cc1cc(N2CCCOC[C@H]2c2ccc([C@H]3CCCN3)cc2Cl)nc(N)n1 [D-89]

IC50 [nM]	SMILES
< 600	Cc1cc(N2CCCOC[C@@H]2c2ccc([C@H]3CCCN3)cc2Cl)nc(N)n1 [D-90]
< 600	Cc1cc(N2CCCOC[C@@H]2c2ccc([C@@H]3CCCN3)cc2Cl)nc(N)n1 [D-91]
600 to 2000	Cc1cc(N2CCCOCC2c2ccc(NC(=O)CC(C)C)cc2Cl)nc(N)n1 [D-92]
< 600	Cc1cc(N2CCCOC[C@@H]2c2ccc(CS(C)(=O)=O)nc2OC(F)F)nc(N)n1 [D-93]
2000 to 5000	Cc1cc(N2CCCOCC2c2ccc(NC(=O)CC3CC3)cc2Cl)nc(N)n1 [D-94]
600 to 2000	CCCC(=O)Nc1ccc(C2COCCCN2c2cc(C)nc(N)n2)c(Cl)c1 [D-95]
600 to 2000	Cc1cc(N2CCCOCC2c2ccc(NC(=O)CC(C)(C)C)cc2Cl)nc(N)n1 [D-96]
< 600	CCC(=O)Nc1cc(Cl)c(C2COCCCN2c2cc(C)nc(N)n2)cc1O [D-97]
< 600	CCc1cc(N2CCCOCC2c2cc(O)c(CS(C)(=O)=O)cc2Cl)nc(N)n1 [D-98]
< 600	Cc1cc(N2CCCOC[C@@H]2c2cc(CN)c(Cl)cc2C)nc(N)n1 [D-99]
600 to 2000	Cc1cc(N2CCCOCC2c2cc(O)c(NC(=O)CC(C)(C)O)cc2Cl)nc(N)n1 [D-100]
< 600	CCOc1cc([C@H]2COCCCN2c2cc(C)nc(N)n2)c(Cl)cc1OCC(N)=O [D-101]
≥ 5000	Cc1cc(N2CCCOCC2c2ccc(S(N)(=O)=O)cc2)nc(N)n1 [D-102]
< 600	C#CCOc1cc(Cl)c([C@H]2COCCCN2c2cc(C)nc(N)n2)cc1OC [D-105]
< 600	CCc1ccccc1[C@H]1COCCCN1c1cc(C)nc(N)n1 [D-106]
600 to 2000	Cc1cc(N2CCCOCC2c2ccc(Cl)cc2C#N)nc(N)n1 [D-107]
2000 to 5000	Cc1cc(N2CCCOCC2c2ccc3[nH]ncc3c2)nc(N)n1 [D-108]
< 600	CC(=O)Nc1cc(Cl)c(C2COCCCN2c2cc(C)nc(N)n2)cc1O [D-109]
< 600	Cc1cc(N2CCCOCC2c2cc(O)c(NC(=O)C3CC3)cc2Cl)nc(N)n1 [D-112]
600 to 2000	C#Cc1ccccc1C1COCCCN1c1cc(C)nc(N)n1 [D-113]
≥ 5000	Cc1cc(N2CCCOC[C@H]2c2cc3c(cc2Cl)NC[C@@](C)(C(=O)O)O3)nc(N)n1 [D-114]
600 to 2000	Cc1cc(N2CCCOC[C@@H]2c2cc(O)c(C(N)=O)cc2Cl)nc(N)n1 [D-115]
600 to 2000	CNC(=O)c1cc(Cl)c(C2COCCCN2c2cc(C)nc(N)n2)cc1O [D-118]
< 600	Cc1cc(N2CCCOC[C@@H]2c2cc3c(cc2Cl)NC[C@@](C)(C(N)=O)O3)nc(N)n1 [D-120]

SMILES	IC50 [nM]
Cc1cc(N2CCCOCC2c2sc(Cl)nc2Cl)nc(N)n1 [D-103]	2000 to 5000

Same assay, conditions: Homo sapiens, 6 hours after compound addition, Table 4

IC50 [nM]	SMILES
< 600	CSCOc1ccc(C2COCCCN2c2cc(C)nc(N)n2)c(Cl)c1 (stereo not shown) [C-105, 4-[3-(2-Chloro-4-methylsulfanylmethoxy-phenyl)-[1,4]oxazepan-4-yl]-6-methyl-pyrimidin-2-ylamine]
≥ 5000	CC[C@@H]1COC[C@@H](c2ccc(CS(C)(=O)=O)cc2Cl)N(c2cc(C)nc(N)n2)C1 [C-110]
600 to 2000	Cc1cc(N2CCCOCC2c2cc(C)c(N3CCCC3)cc2Cl)nc(N)n1 (stereo not shown) [C-112]
< 600	Cc1cc(N2CCCOCC2c2ccc(CS(C)(=O)=O)cc2OC(F)(F)F)nc(N)n1 (stereo not shown) [C-113]
≥ 5000	Cc1cc(N2CCCOC[C@H]2c2cc(C)c(N)cc2Cl)nc(N)n1 [C-114]
< 600	Cc1cc(N2CCCOC[C@@H]2c2cc(C)c(N)cc2Cl)nc(N)n1 [C-115]
< 600	CCOc1cc(Cl)c([C@H]2COCCCN2c2cc(C)nc(N)n2)cc1Cl [C-117]
< 600	Cc1cc(N2CCCOC[C@@H]2c2cc(C(F)(F)F)c(N)cc2Cl)nc(N)n1 [C-119]
< 600	Cc1cc(N2CCCOCC2c2ccc(OCS(C)(=O)=O)cc2Cl)nc(N)n1 (stereo not shown) [C-120, 4-[3-(2-Chloro-4-methanesulfonylmethoxy-phenyl)-[1,4]oxazepan-4-yl]-6-methyl-pyrimidin-2-ylamine]
≥ 5000	CSCOc1ccc([C@H]2COCCCN2c2cc(C)nc(N)n2)c(Cl)c1 [C-121, 4-[(S)-3-(2-Chloro-4-methylsulfanylmethoxy-phenyl)-[1,4]oxazepan-4-yl]-6-methyl-pyrimidin-2-ylamine]
< 600	CSCOc1ccc([C@@H]2COCCCN2c2cc(C)nc(N)n2)c(Cl)c1 [C-122, 4-[(R)-3-(2-Chloro-4-methylsulfanylmethoxy-phenyl)-[1,4]oxazepan-4-yl]-6-methyl-pyrimidin-2-ylamine]
600 to 2000	CC1=C(F)CN(c2ccc([C@H]3COCCCN3c3cc(C)nc(N)n3)c(Cl)c2)CC1 [C-123]
< 600	Cc1cc(N2CC(O)COC[C@@H]2c2ccc(N3CCC(C)(O)CC3)cc2Cl)nc(N)n1 (stereo partly shown) [C-124]
600 to 2000	Cc1cc(N2CCCOC[C@@H]2c2cc(F)c(N3CCC(C)(O)CC3)cc2Cl)nc(N)n1 [C-125]
600 to 2000	Cc1cc(N2CCCOC[C@@H]2c2ccc(N3CCC(C)(O)CC3)c(F)c2Cl)nc(N)n1 [C-126]
2000 to 5000	Cc1cc(N2CCCOC=C2c2c(O)cc(N3CCC(C)(O)CC3)cc2Cl)nc(N)n1 [C-127]
600 to 2000	Cc1cc(N2CCCOCC2c2cc(C)c(O)cc2Cl)nc(N)n1 (stereo not shown) [C-128]
≥ 5000	Cc1cc(N2CCCOCC2c2cc3c(cc2Cl)CCCN3C)nc(N)n1 (stereo not shown) [C-129]
600 to 2000	Cc1cc(N2CCCOCC2c2cc(OC(F)(F)F)c(N)cc2Cl)nc(N)n1 (stereo not shown) [C-130]
600 to 2000	Cc1cc(N2CCCOC[C@H]2c2cc3c(cc2Cl)NC(=O)CO3)nc(N)n1 [C-131]
< 600	Cc1cc(N2CCCOC[C@@H]2c2cc3c(cc2Cl)CCN3)nc(N)n1 [C-134]
≥ 5000	Cc1cc(N2CC3(CC3)COC[C@@H]2c2ccc(CS(C)(=O)=O)cc2Cl)nc(N)n1 [C-136]
≥ 5000	Cc1cc(N2C[C@H](C)COC[C@H]2c2ccc(CS(C)(=O)=O)cc2Cl)nc(N)n1 [C-139]
< 600	Cc1cc(N2CCCOCC2c2cc(N)c(OC(F)(F)F)cc2Cl)nc(N)n1 (stereo not shown) [C-141]
600 to 2000	CC(=O)Nc1cc(Cl)c(N2CCCOCC2c2cc(C)nc(N)n2)cc1C (stereo not shown) [C-143]
600 to 2000	COc1cc(Cl)c([C@H]2COCCCN2c2cc(C)nc(N)n2)cc1OC(C)C [C-144]
< 600	CCNc1cc(Cl)c([C@H]2COCCCN2c2cc(C)nc(N)n2)cc1C [C-146]
2000 to 5000	CCOC(=O)[C@H](C)Oc1cc(Cl)c([C@@H]2COCCCN2c2cc(C)nc(N)n2)cc1OC [C-149]
600 to 2000	CCOC(=O)[C@H](C)Oc1cc(Cl)c([C@H]2COCCCN2c2cc(C)nc(N)n2)cc1OC [C-150]
